Bounds are passed on as bounds.

For the assay, the target named is T1, JAK2 (JH1 domain-catalytic, Y1007F,Y1008F) kinase (Homo sapiens, UniProt O60674, Y1007F/Y1008F).
T1 construct: made in house; host or cells: transiently transfected HEK293 cells
T1 sequence (O60674 849-1124 Y1007F/Y1008F limits assumed): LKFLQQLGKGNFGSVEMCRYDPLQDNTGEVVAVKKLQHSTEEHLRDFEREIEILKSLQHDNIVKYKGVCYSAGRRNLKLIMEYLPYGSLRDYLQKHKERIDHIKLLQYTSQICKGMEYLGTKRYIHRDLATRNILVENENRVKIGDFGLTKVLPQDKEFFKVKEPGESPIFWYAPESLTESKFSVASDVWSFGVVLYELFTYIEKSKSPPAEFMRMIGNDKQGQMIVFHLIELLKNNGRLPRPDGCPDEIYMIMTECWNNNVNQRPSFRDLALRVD
As to the kind of experiment: JAK2 Binding Assay (JAK2 JH1 Domain Binding Assay). As to conditions: JAK2 JH1 domain binding, qPCR detection; read-out: JAK2 Kd. (In qPCR the cycle at which signal appears reflects the starting amount.)
In general, Kd refers to the constant that tells how readily two partners part at equilibrium. Take `CN(C)C(=O)Nc1cc(Oc2cnc3nc(Nc4cc5n(n4)CCCC54CC4)n(C)c3c2C#N)ccn1` [Example I-65, 3-(4-((7-cyano-2-((6′,7′-dihydro-5′H-spiro[cyclopropane-1,4′-pyrazolo[1,5-a]pyridin]-2′-yl)amino)-1-methyl-1H-imidazo[4,5-b]pyridin-6-yl)oxy)pyridin-2-yl)-1,1-dimethylurea]: the Kd is less than 0.01 µM.

Take `Cn1c(Nc2cc3n(n2)CCCC3(F)F)nc2ncc(Oc3ccnc(NC(=O)N4CCOCC4)c3)c(C#N)c21` [Example I-25, N-(4-((7-cyano-2-((4,4-difluoro-4,5,6,7-tetrahydropyrazolo[1,5-a]pyridin-2-yl)amino)-1-methyl-1H-imidazo[4,5-b]pyridin-6-yl)oxy)pyridin-2-yl)morpholine-4-carboxamide]: the Kd lay within 0.01 to 0.05 µM.

For the molecule `COC(=O)Nc1cc(Oc2cnc3nc(Nc4cc(C(F)(F)F)n(C5CC6(COC6)C5)n4)n(C)c3c2Cl)ccn1` [Example I-10, Methyl(4-((2-((1-(2-oxaspiro[3.3]heptan-6-yl)-5-(trifluoromethyl)-1H-pyrazol-3-yl)amino)-7-chloro-1-methyl-1H-imidazo[4,5-b]pyridin-6-yl)oxy)pyridin-2-yl)carbamate], the Kd is less than 0.01 µM.

Take `CNC(=O)Nc1cc(Oc2cnc3nc(Nc4cc5n(n4)CCC54CCC4)n(C)c3c2C#N)ccn1` [Example I-58, 1-(4-((7-cyano-2-((5′,6′-dihydrospiro[cyclobutane-1,4′-pyrrolo[1,2-b]pyrazol]-2′-yl)amino)-1-methyl-1H-imidazo[4,5-b]pyridin-6-yl)oxy)pyridin-2-yl)-3-methylurea]: the Kd is less than 0.01 µM.

For `CO[C@H]1CCN(C(=O)Nc2cc(Oc3cnc4nc(Nc5cc6n(n5)CCCC6(F)F)n(C)c4c3C#N)ccn2)C1` [Example I-34, (S)-N-(4-((7-cyano-2-((4,4-difluoro-4,5,6,7-tetrahydropyrazolo[1,5-a]pyridin-2-yl)amino)-1-methyl-1H-imidazo[4,5-b]pyridin-6-yl)oxy)pyridin-2-yl)-3-methoxypyrrolidine-1-carboxamide], the Kd was less than 0.01 µM.

Turning to `Cn1c(Nc2cc3n(n2)CCCC3(F)F)nc2ncc(Oc3ccnc(NC(=O)N4CC(O)C4)c3)c(C#N)c21` [Example I-35, N-(4-((7-cyano-2-((4,4-difluoro-4,5,6,7-tetrahydropyrazolo[1,5-a]pyridin-2-yl)amino)-1-methyl-1H-imidazo[4,5-b]pyridin-6-yl)oxy)pyridin-2-yl)-3-hydroxyazetidine-1-carboxamide], the Kd is less than 0.01 µM.

Consider `Cn1cc(C(F)(F)F)cc(Nc2nc3ncc(Oc4ccnc(NC(=O)NC5CC5)c4)c(C#N)c3n2C)c1=O` [Example I-42, 1-(4-((7-cyano-1-methyl-2-((1-methyl-2-oxo-5-(trifluoromethyl)-1,2-dihydropyridin-3-yl)amino)-1H-imidazo[4,5-b]pyridin-6-yl)oxy)pyridin-2-yl)-3-cyclopropylurea], for which the Kd was less than 0.01 µM.

As for `Cn1cc(C(F)(F)F)cc(Nc2nc3ncc(Oc4ccnc(NC(=O)C[C@@H]5CCCCO5)c4)c(C#N)c3n2C)c1=O` (single isomer, unassigned) [Example I-74-a], the Kd is less than 0.01 µM.

For `COC(=O)Nc1cc(Oc2cnc3nc(Nc4cc5n(n4)CCOC5(C)C)n(C)c3c2C#N)ccn1` [Example I-43, Methyl(4-((7-cyano-2-((4,4-dimethyl-6,7-dihydro-4H-pyrazolo[5,1-c][1,4]oxazin-2-yl)amino)-1-methyl-1H-imidazo[4,5-b]pyridin-6-yl)oxy)pyridin-2-yl)carbamate], the Kd was less than 0.01 µM.

In the case of `CC(=O)Nc1cc(Oc2cnc3nc(Nc4ccc([C@@H]5CCCN5C)c(C(F)(F)F)c4)n(C)c3c2C#N)ccn1` (single isomer, unassigned) [Example I-109-b], the Kd is less than 0.01 µM.

Take `[2H]C([2H])([2H])n1cc(C(F)(F)F)cc(Nc2nc3ncc(Oc4ccnc(NC(C)=O)c4)c(C#N)c3n2C)c1=O` [Example I-83, N-(4-((7-cyano-1-methyl-2-((1-(methyl-d3)-2-oxo-5-(trifluoromethyl)-1,2-dihydropyridin-3-yl)amino)-1H-imidazo[4,5-b]pyridin-6-yl)oxy)pyridin-2-yl)acetamide]: the equilibrium dissociation constant (Kd) was less than 0.01 µM.

As for `CC(=O)Nc1cc(Oc2cnc3nc(Nc4ccc([C@H]5CCCN5C)c(C(F)(F)F)c4)n(C)c3c2Cl)ccn1` (single isomer, unassigned) [Example I-108-a], the Kd is less than 0.01 µM.

Turning to `COc1c(Oc2ccnc(NC(C)=O)c2)cnc2nc(Nc3cc(C(F)(F)F)cn(CCO)c3=O)n(C)c12` [Example I-80, N-(4-((2-((1-(2-hydroxyethyl)-2-oxo-5-(trifluoromethyl)-1,2-dihydropyridin-3-yl)amino)-7-methoxy-1-methyl-1H-imidazo[4,5-b]pyridin-6-yl)oxy)pyridin-2-yl)acetamide], the Kd was less than 0.01 µM.

Consider `COC1CN(C(=O)Nc2cc(Oc3cnc4nc(Nc5cc(C(F)(F)F)cn(C)c5=O)n(C)c4c3C#N)ccn2)C1` [Example I-9, N-(4-((7-cyano-1-methyl-2-((1-methyl-2-oxo-5-(trifluoromethyl)-1,2-dihydropyridin-3-yl)amino)-1H-imidazo[4,5-b]pyridin-6-yl)oxy)pyridin-2-yl)-3-methoxyazetidine-1-carboxamide], for which the Kd was less than 0.01 µM.

Turning to `CC(=O)Nc1cc(Oc2cnc3nc(Nc4cc(N5CCCC5)nc(C(F)(F)F)c4)n(C)c3c2Cl)ccn1` [Example I-111, N-(4-((7-chloro-1-methyl-2-((2-(pyrrolidin-1-yl)-6-(trifluoromethyl)pyridin-4-yl)amino)-1H-imidazo[4,5-b]pyridin-6-yl)oxy)pyridin-2-yl)acetamide], the Kd is 0.05 to 1 µM.

Turning to `CC(=O)Nc1cc(Oc2cnc3nc(Nc4cc(C(F)(F)F)cn(CCO)c4=O)n(C)c3c2C#N)ccn1` [Example I-81], the Kd was less than 0.01 µM.

Consider `CN(C)C(=O)Nc1cc(Oc2cnc3nc(Nc4cc5n(n4)CCN5C(C)(C)C)n(C)c3c2C#N)ccn1` [Example I-70, 3-(4-((2-((1-(tert-butyl)-2,3-dihydro-1H-imidazo[1,2-b]pyrazol-6-yl)amino)-7-cyano-1-methyl-1H-imidazo[4,5-b]pyridin-6-yl)oxy)pyridin-2-yl)-1,1-dimethylurea], for which the Kd was in the range of 0.01 to 0.05 µM.

As to `CN1CCN(C(=O)Nc2cc(Oc3cnc4nc(Nc5cc6n(n5)CCCC6(F)F)n(C)c4c3C#N)ccn2)CC1` [Example I-24, N-(4-((7-cyano-2-((4,4-difluoro-4,5,6,7-tetrahydropyrazolo[1,5-a]pyridin-2-yl)amino)-1-methyl-1H-imidazo[4,5-b]pyridin-6-yl)oxy)pyridin-2-yl)-4-methylpiperazine-1-carboxamide], the equilibrium dissociation constant (Kd) fell in the range of 0.01 to 0.05 µM.

As for `Cn1c(Nc2cc3n(n2)CCC32CCC2)nc2ncc(Oc3ccnc(NC(=O)OC4COC4)c3)c(C#N)c21` [Example I-66, oxetan-3-yl (4-((7-cyano-2-((5′,6′-dihydrospiro[cyclobutane-1,4′-pyrrolo[1,2-b]pyrazol]-2′-yl)amino)-1-methyl-1H-imidazo[4,5-b]pyridin-6-yl)oxy)pyridin-2-yl)carbamate], the Kd was less than 0.01 µM.

Regarding `CN(C)CCOC(=O)Nc1cc(Oc2cnc3nc(Nc4cc5n(n4)CCCC5(F)F)n(C)c3c2C#N)ccn1` [Example I-38, 2-(Dimethylamino)ethyl(4-((7-cyano-2-((4,4-difluoro-4,5,6,7-tetrahydropyrazolo[1,5-a]pyridin-2-yl)amino)-1-methyl-1H-imidazo[4,5-b]pyridin-6-yl)oxy)pyridin-2-yl)carbamate], the Kd was less than 0.01 µM.

On to `Cn1cc(C(F)(F)F)cc(Nc2nc3ncc(Oc4ccnc(NC(=O)O[C@H]5CCOC5)c4)c(C#N)c3n2C)c1=O` [Example I-17, (S)-Tetrahydrofuran-3-yl(4-((7-cyano-1-methyl-2-((1-methyl-2-oxo-5-(trifluoromethyl)-1,2-dihydropyridin-3-yl)amino)-1H-imidazo[4,5-b]pyridin-6-yl)oxy)pyridin-2-yl)carbamate], for which the Kd is less than 0.01 µM.

As to `CO[C@H]1CCN(C(=O)Nc2cc(Oc3cnc4nc(Nc5cc6n(n5)CCC65CCC5)n(C)c4c3C#N)ccn2)C1` [Example I-59, (S)-N-(4-((7-cyano-2-((5′,6′-dihydrospiro[cyclobutane-1,4′-pyrrolo[1,2-b]pyrazol]-2′-yl)amino)-1-methyl-1H-imidazo[4,5-b]pyridin-6-yl)oxy)pyridin-2-yl)-3-methoxypyrrolidine-1-carboxamide], the Kd is less than 0.01 µM.

As for `CC(=O)Nc1cc(Oc2cnc3nc(Nc4cc(O[C@@H]5CCN(C)C5)cc(C(F)(F)F)c4)n(C)c3c2Cl)ccn1` [Example I-100, (R)-N-(4-((7-chloro-1-methyl-2-((3-((1-methylpyrrolidin-3-yl)oxy)(trifluoromethyl)phenyl)amino)-1H-imidazo[4,5-b]pyridin-6-yl)oxy)pyridin-2-yl)acetamide], the Kd is less than 0.01 µM.

Regarding `Cn1c(Nc2cc3n(n2)CCCC3(F)F)nc2ncc(Oc3ccnc(NC(=O)N4CCCC4)c3)c(C#N)c21` [Example I-23, N-(4-((7-cyano-2-((4,4-difluoro-4,5,6,7-tetrahydropyrazolo[1,5-a]pyridin-2-yl)amino)-1-methyl-1H-imidazo[4,5-b]pyridin-6-yl)oxy)pyridin-2-yl)pyrrolidine-1-carboxamide], the Kd was less than 0.01 µM.

Regarding `Cn1c(Nc2cc3n(n2)CCOC3(C)C)nc2ncc(Oc3ccnc(NC(=O)N4CCC4)c3)c(C#N)c21` [Example I-47, N-(4-((7-cyano-2-((4,4-dimethyl-6,7-dihydro-4H-pyrazolo[5,1-c][1,4]oxazin-2-yl)amino)-1-methyl-1H-imidazo[4,5-b]pyridin-6-yl)oxy)pyridin-2-yl)azetidine-1-carboxamide], the Kd was less than 0.01 µM.

For `CN(C)CCOC(=O)Nc1cc(Oc2cnc3nc(Nc4cc(C(F)(F)F)cn(C)c4=O)n(C)c3c2Cl)ccn1` [Example I-19, 2-(Dimethylamino)ethyl(4-((7-chloro-1-methyl-2-((1-methyl-2-oxo-5-(trifluoromethyl)-1,2-dihydropyridin-3-yl)amino)-1H-imidazo[4,5-b]pyridin-6-yl)oxy)pyridin-2-yl)carbamate], the equilibrium dissociation constant (Kd) is less than 0.01 µM.

(Values after patent US11970494B2, “6-heteroaryloxy benzimidazoles and azabenzimidazoles as JAK2 inhibitors” (Ajax Therapeutics, Inc., priority 2021, dated 2024).)
